From patent US11091486B2, “Process for the preparation of pyrazolo[1,5-a]pyrimidines and salts thereof” (Array BioPharma Inc., priority 2016, dated 2021)
Converted amounts (≈) assume the structure as drawn. “Also recorded” adds a separate entry of the source. Where two headings read alike, the source gives them in different places.

Experiments:
Format in all cases: physicochemical
[1] = Salt stability studies, 40° C./75% RH for 1 week, XRPD
Experimental: Recovered salts were placed in an oven at 40° C./75% RH for 1 week, and the resultant materials were analyzed by XRPD to determine any changes to form or crystallinity.

[2] = Hydration screen in acetone/water mixtures; settings: 24 hr
Experimental: Hydration screen was carried out as follows: 10 mg of prepared salts were suspended in several acetone/water mixtures of various water activities (low: aw=0.281, medium: aw=0.776 and high: aw=0.919) and agitated at ambient temperatures for 24 hr. Any recovered solids were submitted for XRPD analysis to determine any changes to form.

[3] = Dynamic vapor sorption (DVS); settings: for Hygroscopicity, mass uptake by DVS: at 90% RH; for Crystalline form by XRPD after exposure to DVS humidity conditions: post-DVS XRPD
Experimental: Approximately, 10 mg of sample was placed into a mesh vapor sorption balance pan and loaded into a DVS-1 dynamic vapor sorption balance by Surface Measurement Systems. The sample was subjected to a ramping profile from 40-90% relative humidity (RH) at 10% increments, maintaining the sample at each step until a stable weight had been achieved (99.5% step completion). After completion of the sorption cycle, the sample was dried using the same procedure to 0% RH and then a second sorption cycle back to 40% RH. The weight change during the sorption/desorption cycles were plotted, allowing for the hygroscopic nature of the sample to be determined. XRPD analysis was then carried out on any solid retained.

[4] = 1-week stability tests (40° C./75% RH, 80° C., ambient light), XRPD and UPLC
Excerpt: Compound 1 (Form I) was subjected to various different environmental conditions to assess stability.

[5] = Thermodynamic solubility of prepared salts
Experimental: Thermodynamic solubility studies were carried out as follows: 10 mg of prepared salts were suspended in pH 1, 4.5, 6.8 and un-buffered water (300 μL). The pH of the slurries was measured and adjusted accordingly using either 0.2M HCl solution or 0.2M sodium hydroxide solution. The slurries were agitated for 24 hours at ambient temperature using an incubator shaker.

[6] = Salt disproportionation studies; settings: deionized water, 24 h at ambient temperature
Experimental: Salt disproportionation studies were carried out as follows: 20 mg of prepared salts were weighed into a vial and 0.5 mL of deionized water was added. The samples were then agitated for 24 h at ambient temperature. The pH of the samples was taken pre- and post-agitation. Any solids recovered were submitted for XRPD analysis to determine any changes to form.

[7] = Approximate solvent solubility of amorphous Compound 1 free base by solvent addition (Example 1); settings: for solubility: organic solvent or mixture, thermodynamic from solid, read-out: Approx. Solubility
Experimental: A solid Compound 1 was obtained as follows. A […] of solution containing about 330 mg of Compound 1 in warm 1,4-dioxane was divided between 33, 2 mL glass vials (1.5 mL in each). The solutions were frozen and freeze-dried by lyophilization overnight. The resulting material was then analyzed by XRPD to confirm mostly amorphous material.
Approximately 10 mg of amorphous Compound 1 was produced in 32×2 mL glass vials from freeze drying and 100 μL of the appropriate solvent system was added to the appropriate vial. Between each addition, the mixture was checked for dissolution and if no dissolution was apparent, the mixture was heated to about 40° C. and checked again. This procedure was continued until dissolution was observed or until 2 mL had been added (to the compound concentration of <5 mg/mL).

[8] = Gravimetric vapor sorption (GVS)
Experimental: Approximately 10-20 mg of sample was placed into a mesh vapor sorption balance pan and loaded into an IGASorp Moisture Sorption Analyzer balance by Hiden Analytical. […] After completion of the sorption cycle, the sample was dried using the same procedure to 0% RH, and finally taken back to the starting point of 40% RH. The weight change during the sorption/desorption cycles were plotted, allowing for the hygroscopic nature of the sample to be determined.

[9] = salt recovered from isopropanol

C[C@@H]1CCc2ncc(F)cc2[C@H]2CCCN2c2ccn3ncc(c3n2)C(=O)N1.Cc1ccc(S(=O)(=O)O)cc1
Post-stability XRPD: changes to form or crystallinity ([1]; salt recovered from acetone): become amorphous

C[C@@H]1CCc2ncc(F)cc2[C@H]2CCCN2c2ccn3ncc(c3n2)C(=O)N1.O=S(=O)(O)c1ccccc1 [Compound 1 besylate]
Hydration study: recovered solid by XRPD ([2]; high water activity (aw=0.919)): poorly crystalline besylate salt | Hydration study: recovered solid by XRPD ([2]; low water activity (aw=0.281)): poorly crystalline besylate salt | Hygroscopicity, mass uptake by DVS [3]: about 0.7% | Crystalline form by XRPD after exposure to DVS humidity conditions [3]: no changes in crystalline form | 1-week stability test: change to form (XRPD) ([4]; 40° C./75% RH): appears to be a mixture of besylate salt and something else | 1-week stability test: change in purity (UPLC) ([4]; 80° C.): no change to purity | 1-week stability test: change to form (XRPD) ([4]; 80° C.): no change to form | 1-week stability test: change in purity (UPLC) ([4]; ambient light): no change to purity | 1-week stability test: change to form (XRPD) ([4]; ambient light): no change to form | Thermodynamic solubility in words ([5]; pH 1): highly soluble | Solid recovered from thermodynamic solubility slurry (XRPD) ([5]; pH 4.5): an unknown form | Thermodynamic solubility in words ([5]; pH 4.5): moderately soluble | Solid recovered from thermodynamic solubility slurry (XRPD) ([5]; pH 6.8): poorly crystalline free base | Thermodynamic solubility in words ([5]; pH 6.8): low solubility | Solid recovered from thermodynamic solubility slurry (XRPD) ([5]; unbuffered water): poorly crystalline free base | Thermodynamic solubility in words ([5]; unbuffered water): moderately soluble | Salt disproportionation: recovered material by XRPD [6]: poorly crystalline free base

C[C@@H]1CCc2ncc(F)cc2[C@H]2CCCN2c2ccn3ncc(c3n2)C(=O)N1.O=C(O)CC(O)(CC(=O)O)C(=O)O [Compound 1 citrate Form A]
Hygroscopicity, mass uptake by DVS [3]: around 1.8% | Post-stability XRPD: changes to form or crystallinity ([1]; salt recovered from TBME): a decrease to crystallinity but no change to form | Post-stability XRPD: changes to form or crystallinity ([1]; salt recovered from acetone): a decrease to crystallinity but no change to form

C[C@@H]1CCc2ncc(F)cc2[C@H]2CCCN2c2ccn3ncc(c3n2)C(=O)N1 [Compound 1, (6R,15R)-9-fluoro-15-methyl-2,11,16,20,21,24-hexaazapentacyclo[16.5.2.0^2,6.0^7,12.0^21,25]pentacosa-1(24),7,9,11,18(25),19,22-heptaen-17-one]
solubility ([7]; 1,2-Dimethoxyethane): 8.3 mg/mL (≈ 21.8 mM) | solubility ([7]; 1,4-Dioxane): 8.3 mg/mL (≈ 21.8 mM) | solubility ([7]; 1-butanol): 17 mg/mL (≈ 44.7 mM) | solubility ([7]; 2-Ethoxy ethanol): 50 mg/mL (≈ 131 mM) | solubility ([7]; 2-Propanol): 14.3 mg/mL (≈ 37.6 mM) | solubility ([7]; 2-butanone): 11.1 mg/mL (≈ 29.2 mM) | solubility ([7]; Acetone): 11.1 mg/mL (≈ 29.2 mM) | solubility ([7]; Acetonitrile): 12.5 mg/mL (≈ 32.9 mM) | solubility ([7]; Dimethylsulfoxide): 50 mg/mL (≈ 131 mM) | solubility ([7]; Ethanol): 20 mg/mL (≈ 52.6 mM) | solubility ([7]; Methanol): 50 mg/mL (≈ 131 mM) | solubility ([7]; Methylisobutyl ketone): 6.25 mg/mL (≈ 16.4 mM) | solubility ([7]; Tetrahydrofuran, 40 °C): 20 mg/mL (≈ 52.6 mM) | solubility ([7]; anisole): 11.1 mg/mL (≈ 29.2 mM) | Solvent solubility in words ([7]; non-polar solvents such as toluene and 1,4-dioxane): low solubility | solubility ([7]; Diglyme (bis(2-methoxyethyl ether))): 8.3 mg/mL (≈ 21.8 mM) | Solvent solubility in words ([7]; polar aprotic solvents such as acetone, ethyl acetate and acetonitrile): medium solubility | Solvent solubility in words ([7]; polar solvents such as DMSO, DMF and protic solvents such as methanol): high solubility | Hygroscopicity, mass uptake by DVS [3]: about 0.7% | Crystalline form by XRPD after exposure to DVS humidity conditions [3]: no change in crystalline form | 1-week stability test: change in purity (UPLC) ([4]; 40° C./75% RH): no change in purity | 1-week stability test: change to form (XRPD) ([4]; 40° C./75% RH): no change to form | 1-week stability test: change in purity (UPLC) ([4]; 80° C.): no change in purity | 1-week stability test: change to form (XRPD) ([4]; 80° C.): no change to form | Average purity after 1-week stability test (UPLC) ([4]; 80° C. test): 99.3% | 1-week stability test: change in purity (UPLC) ([4]; ambient light): no change in purity | 1-week stability test: change to form (XRPD) ([4]; ambient light): no change to form | Average purity after 1-week stability test (UPLC) ([4]; ambient light test): 99.2% | Average purity after 1-week stability test (UPLC) ([4]; relative humidity test (40° C./75% RH)): 99.2% | Crystalline form by XRPD after exposure to GVS humidity conditions ([8]; post-GVS XRPD): no changes to form or crystallinity; also recorded: no changes in crystalline form

C[C@@H]1CCc2ncc(F)cc2[C@H]2CCCN2c2ccn3ncc(c3n2)C(=O)N1 [Form I, (6R,15R)-9-fluoro-15-methyl-2,11,16,20,21,24-hexaazapentacyclo[16.5.2.0^2,6.0^7,12.0^21,25]pentacosa-1(24),7,9,11,18(25),19,22-heptaen-17-one]
Hygroscopicity, mass uptake by DVS [3]: about 0.7% | Hygroscopicity, mass uptake by GVS ([8]; at 90% RH): about 0.3%

C[C@@H]1CCc2ncc(F)cc2[C@H]2CCCN2c2ccn3ncc(c3n2)C(=O)N1.O=S(=O)(O)c1ccccc1 [besylate pattern 1]
Post-stability XRPD: changes to form or crystallinity ([1]; salt recovered from TBME): preferred orientation but no changes to form | Post-stability XRPD: changes to form or crystallinity ([1]; salt recovered from THF): an increase to crystallinity but no changes to form | Post-stability XRPD: changes to form or crystallinity ([1]; salt recovered from ethanol): a decrease in crystallinity

C[C@@H]1CCc2ncc(F)cc2[C@H]2CCCN2c2ccn3ncc(c3n2)C(=O)N1.O=C(O)C[C@H](O)C(=O)O [crystalline L-malate]
Post-stability XRPD: changes to form or crystallinity ([1]; salt recovered from TBME): no change to crystallinity and form

C[C@@H]1CCc2ncc(F)cc2[C@H]2CCCN2c2ccn3ncc(c3n2)C(=O)N1.O=C(O)/C=C/C(=O)O [crystalline fumarate]
Post-stability XRPD: changes to form or crystallinity ([1]; salt recovered from acetone): a slight decrease to crystallinity however, no change to form

CS(=O)(=O)O.C[C@@H]1CCc2ncc(F)cc2[C@H]2CCCN2c2ccn3ncc(c3n2)C(=O)N1 [crystalline mesylate]
Post-stability XRPD: changes to form or crystallinity ([1]; salt recovered from acetone): no changes to crystallinity or form | Post-stability XRPD: changes to form or crystallinity [1, 9]: a slight increase in crystallinity but no changes to form | Post-stability XRPD: changes to form or crystallinity ([1]; salt recovered from methanol): a decrease in crystallinity but no changes to form

C[C@@H]1CCc2ncc(F)cc2[C@H]2CCCN2c2ccn3ncc(c3n2)C(=O)N1.O=C(O)CCC(=O)O [crystalline succinate]
Post-stability XRPD: changes to form or crystallinity ([1]; salt recovered from acetone): a decrease in crystallinity but no change to form

C[C@@H]1CCc2ncc(F)cc2[C@H]2CCCN2c2ccn3ncc(c3n2)C(=O)N1 [edisylate]
Post-stability XRPD: changes to form or crystallinity [1, 9]: become amorphous

C[C@@H]1CCc2ncc(F)cc2[C@H]2CCCN2c2ccn3ncc(c3n2)C(=O)N1.O=C(O)C(=O)O [oxalate]
Post-stability XRPD: changes to form or crystallinity ([1]; salt recovered from ethanol): a change in crystallinity and form | Post-stability XRPD: changes to form or crystallinity ([1]; salt recovered from methanol): no change to crystallinity however, changes to form were seen
